Measurements taken from patent publication US8907098B2, “Inhibitors of sphingosine kinase” (MERCK PATENT GmbH, priority 2009, dated 2014).

Target: modified SphK1 (Homo sapiens, UniProt Q9NYA1)
Assay: SphK1 biochemical kinase assay (384-well flashplate)
Conditions: IC50 ranges; 5 nM modified SphK1, 1 μM ATP, 30° C., 120 min; read-out: SphK1 Inhibition IC50
Experimental: The kinase assay is carried out as a 384-well flashplate assay.
5 nM modified SphK1, 800 nM omega-biotinyl-D-erythro-sphingosine and 1 μM ATP (with 0.3 μCi of ^33P-ATP/well) are incubated in a total volume of 50 μl (25 mM HEPES, 5 mM MgCl2, 1 mM dithiothreitol, 0.01% of Brij35, 0.1% of BSA (fatty acid-free), pH 7.4) without or with test substance (5-10 concentrations) at 30° C. for 120 min. The reaction is terminated using 25 μl of 200 mM EDTA solution, filtered off with suction at room temperature after 30 min, and the cavities are washed 3 times with 100 μl of 0.9% NaCl solution. The non-specific proportion of the kinase reaction (blank) is determined using 0.5 mM NaCl. Radioactivity is measured in topcount. IC50 values are calculated using RS1.

Sequence of modified SphK1 (Q9NYA1 whole entry): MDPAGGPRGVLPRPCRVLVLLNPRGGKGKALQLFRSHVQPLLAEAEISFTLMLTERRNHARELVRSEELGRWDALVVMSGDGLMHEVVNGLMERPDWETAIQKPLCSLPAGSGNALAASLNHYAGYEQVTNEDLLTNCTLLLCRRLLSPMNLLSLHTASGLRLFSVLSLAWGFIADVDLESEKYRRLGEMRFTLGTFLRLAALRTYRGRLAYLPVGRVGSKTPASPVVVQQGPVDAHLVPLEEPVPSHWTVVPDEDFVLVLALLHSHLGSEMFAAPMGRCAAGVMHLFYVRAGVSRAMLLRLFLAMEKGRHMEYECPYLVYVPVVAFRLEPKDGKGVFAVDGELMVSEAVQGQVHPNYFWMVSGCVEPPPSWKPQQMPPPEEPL

| IC50 | Compound |
| --- | --- |
| 0.1 to 1 µM | CC1(C)CCC(C)(C)c2cc(-c3csc(N4CCC(N5CCC(N)C5)CC4)n3)ccc21 (stereo not shown) |
| 0.1 to 1 µM | CC(=O)N1CCC(c2csc(-c3ccc4c(c3)C(C)(C)CCC4(C)C)n2)CC1 |
| 0.1 to 1 µM | CC1(C)CCCc2cc(-c3csc(N4CCC(N)CC4)n3)ccc21 |
| > 1 µM | CC1(C)CCC(C)(C)c2cc(-c3csc(N4CCCC(C(=O)NCCCO)C4)n3)ccc21 (stereo not shown) |
| 0.1 to 1 µM | CC1(C)CCC(C)(C)c2cc(-c3csc(N4CCCC(C(=O)NCCO)C4)n3)ccc21 (stereo not shown) |
| > 1 µM | CC1(C)CCC(C)(C)c2cc(-c3csc(N4CCC(C(=O)NCCO)CC4)n3)ccc21 |
| < 0.1 µM | CC1(C)CCC(C)(C)c2cc(-c3csc(N4CCC(NCCO)CC4)n3)ccc21 |
| 0.1 to 1 µM | CC1(C)CCC(C)(C)c2cc(-c3csc(N4CCC(CCN)CC4)n3)ccc21 |
| 0.1 to 1 µM | CC1(C)CCC(C)(C)c2cc(-c3csc(N4CCCC(CCO)C4)n3)ccc21 (stereo not shown) |
| 0.1 to 1 µM | CC1(C)CCC(C)(C)c2cc(-c3csc(C4CCCN(CCO)C4)n3)ccc21 (stereo not shown) |
| 0.1 to 1 µM | CC1(C)CCC(C)(C)c2cc(-c3csc(N4CCC(N5CCN(CCO)CC5)CC4)n3)ccc21 |
| 0.1 to 1 µM | CC1(C)CCC(C)(C)c2cc(-c3csc(N4CCN(CCO)CC4)n3)ccc21 |
| 0.1 to 1 µM | CC1(C)CCC(C)(C)c2cc(-c3csc(N4CCN(C5CCCCC5O)CC4)n3)ccc21 (stereo not shown) |
| 0.1 to 1 µM | CC1(C)CCCc2cc(-c3csc(N4CCC(N(CCO)CCO)CC4)n3)ccc21 |
| > 1 µM | CC1(C)CCC(C)(C)c2cc(-c3csc(N4CC[C@@H](NCCO)C4)n3)ccc21 |
| < 0.1 µM | CC1(C)CCC(C)(C)c2cc(-c3csc(N4CCC(NCCCO)CC4)n3)ccc21 |
| < 0.1 µM | CC1(C)CCC(C)(C)c2cc(-c3csc(N4CCC(NCC(O)CO)CC4)n3)ccc21 (stereo not shown) |
| > 1 µM | CC1(C)CCC(C)(C)c2cc(-c3csc(N4CCCC(CCCO)C4)n3)ccc21 (stereo not shown) |
| > 1 µM | CC1(C)CCC(C)(C)c2cc(-c3csc(N4CCC(CCCO)CC4)n3)ccc21 |
| > 1 µM | CC1(C)CCC(C)(C)c2cc(-c3csc(C4CCCN(CCCO)C4)n3)ccc21 (stereo not shown) |
| 0.1 to 1 µM | CC1(C)CCC(C)(C)c2cc(-c3csc(N4CCN(CCCO)CC4)n3)ccc21 |

| IC50 | Compound |
| --- | --- |
| 0.1 to 1 µM | CC1(C)CCC(C)(C)c2cc(-c3csc(N4CCN(CC(O)CO)CC4)n3)ccc21 (stereo not shown) |
| > 1 µM | CC1(C)CCC(C)(C)c2cc(-c3csc(N4CC[C@H](NCCCO)C4)n3)ccc21 |
| > 1 µM | CC1(C)CCC(C)(C)c2cc(-c3csc(N4CCC(N5CCOCC5)CC4)n3)ccc21 |
| > 1 µM | CC1(C)CCC(C)(C)c2cc(-c3csc(C4CCCN(CCCCO)C4)n3)ccc21 (stereo not shown) |
| 0.1 to 1 µM | CC1(C)CCCc2cc(-c3csc(N4CCN(CCCCO)CC4)n3)ccc21 |
| 0.1 to 1 µM | CC1(C)CCC(C)(C)c2cc(-c3csc(N4CCN(CCCCO)CC4)n3)ccc21 |
| 0.1 to 1 µM | CC1(C)CCC(C)(C)c2cc(-c3csc(C4CCC(N)CC4)n3)ccc21 (stereo not shown) |
| 0.1 to 1 µM | CC1(C)CCCc2cc(-c3csc(C4CCN(CCCCCO)C4)n3)ccc21 (stereo not shown) |
| > 1 µM | CC1(C)CCC(C)(C)c2cc(-c3csc(C4CCCN(CCCCCO)C4)n3)ccc21 (stereo not shown) |
| 0.1 to 1 µM | CC1(C)CCC(C)(C)c2cc(-c3csc(N4CCN(CCCCCO)CC4)n3)ccc21 |
| 0.1 to 1 µM | CC1(C)CCC(C)(C)c2cc(-c3csc(N4CCC(CN)CC4)n3)ccc21 |
| < 0.1 µM | CC(=O)NC1CCN(C2CCN(c3nc(-c4ccc5c(c4)C(C)(C)CCC5(C)C)cs3)CC2)C1 (stereo not shown) |
| 0.1 to 1 µM | CC1(C)CCC(C)(C)c2cc(-c3csc(N4CC[C@@H](N)C4)n3)ccc21 |
| 0.1 to 1 µM | CC1(C)CCC(C)(C)c2cc(-c3csc(N4CCC(NC[C@@H](N)CO)CC4)n3)ccc21 |
| 0.1 to 1 µM | CC1(C)CCC(C)(C)c2cc(-c3csc(N4CCC(NC[C@@H](O)CO)CC4)n3)ccc21 |
| 0.1 to 1 µM | CC1(C)CCC(C)(C)c2cc(-c3csc(N4CC[C@H](N)C4)n3)ccc21 |
| < 0.1 µM | CC1(C)CCC(C)(C)c2cc(-c3csc(N4CCC(NC[C@H](O)CO)CC4)n3)ccc21 |
| 0.1 to 1 µM | CN1CCN(C2CCN(c3nc(-c4ccc5c(c4)C(C)(C)CCC5(C)C)cs3)CC2)CC1 [1-Methyl-4-{1-[4-(5,5,8,8-tetramethyl-5,6,7,8-tetrahydronaphthalen-2-yl)thiazol-2-yl]piperidin-4-yl}piperazine] |
| 0.1 to 1 µM | CC1(C)CCc2cc(-c3csc(N4CCC(N)CC4)n3)ccc21 [1-[4-(1,1-Dimethylindan-5-yl)thiazol-2-yl]piperidin-4-ylamine] |
| 0.1 to 1 µM | CC1(C)CCC(C)(C)c2cc(-c3csc(N4CCC(C5CCNCC5)CC4)n3)ccc21 [1-[4-(5,5,8,8-Tetramethyl-5,6,7,8-tetrahydronaphthalen-2-yl)thiazol-2-yl]-4,4′-bipiperidinyl] |
| 0.1 to 1 µM | CC1(C)CCC(C)(C)c2cc(-c3csc(N4CCNCC4)n3)ccc21 [1-[4-(5,5,8,8-Tetramethyl-5,6,7,8-tetrahydronaphthalen-2-yl)thiazol-2-yl]piperazine] |

| IC50 | Compound |
| --- | --- |
| 0.1 to 1 µM | CC1(C)CCC(C)(C)c2cc(-c3csc(N4CCC(N)CC4)n3)ccc21 [1-[4-(5,5,8,8-Tetramethyl-5,6,7,8-tetrahydronaphthalen-2-yl)thiazol-2-yl]piperidin-4-ylamine] |
| > 1 µM | CCOC(=O)C1CCN(c2nc(-c3ccc4c(c3)C(C)(C)CCC4(C)C)cs2)CC1 [1-[4-(5,5,8,8-Tetramethyl-5,6,7,8-tetrahydronaphthalen-2-yl)thiazol-2-yl]piperidine-4-carboxylic acid ethyl ester] |
| 0.1 to 1 µM | CC1(C)CCC(C)(C)c2cc(-c3csc(N4CCC(N)C4)n3)ccc21 (stereo not shown) [1-[4-(5,5,8,8-Tetramethyl-5,6,7,8-tetrahydronaphthalen-2-yl)thiazol-2-yl]pyrrolidin-3-ylamine] |
| 0.1 to 1 µM | CC1(C)CCCc2cc(-c3csc(N4CCNCC4)n3)ccc21 [1-[4-(5,5-Dimethyl-5,6,7,8-tetrahydronaphthalen-2-yl)thiazol-2-yl]-piperazine] |
| 0.1 to 1 µM | CC1(C)CCC(C)(C)c2cc(-c3csc(N4CCC(N5CCCC(O)C5)CC4)n3)ccc21 (stereo not shown) [1′-[4-(5,5,8,8-Tetramethyl-5,6,7,8-tetrahydronaphthalen-2-yl)thiazol-2-yl]-1,4′-bipiperidinyl-3-ol] |
| 0.1 to 1 µM | CC1(C)CCC(C)(C)c2cc(-c3csc(N4CCC(N(CCO)CCO)CC4)n3)ccc21 [2-((2-Hydroxyethyl)-{1-[4-(5,5,8,8-tetramethyl-5,6,7,8-tetrahydronaphthalen-2-yl)thiazol-2-yl]piperidin-4-yl}amino)ethanol] |
| 0.1 to 1 µM | CC1(C)CCC(C)(C)c2cc(-c3csc(C4CCNC4)n3)ccc21 (stereo not shown) [2-Pyrrolidin-3-yl-4-(5,5,8,8-tetramethyl-5,6,7,8-tetrahydronaphthalen-2-yl)thiazole] |
| 0.1 to 1 µM | CC1(C)CCc2cc(-c3csc(N4CCC(NCCO)CC4)n3)ccc21 [2-{1-[4-(1,1-Dimethylindan-5-yl)thiazol-2-yl]piperidin-4-ylamino}ethanol] |
| 0.1 to 1 µM | CC1(C)CCC(C)(C)c2cc(-c3csc(N4CCC5(CCNCC5)CC4)n3)ccc21 [3-[4-(5,5,8,8-Tetramethyl-5,6,7,8-tetrahydronaphthalen-2-yl)thiazol-2-yl]-3,9-diazaspiro[5.5]undecane] |
| 0.1 to 1 µM | CC1(C)CCC(C)(C)c2cc(-c3csc(C4CCCNC4)n3)ccc21 (stereo not shown) [3-[4-(5,5,8,8-Tetramethyl-5,6,7,8-tetrahydronaphthalen-2-yl)thiazol-2-yl]piperidine] |
| 0.1 to 1 µM | CC1(C)CCc2cc(-c3csc(N4CCC(NCCCO)CC4)n3)ccc21 [3-{1-[4-(1,1-Dimethylindan-5-yl)thiazol-2-yl]piperidin-4-ylamino}propan-1-ol] |
| 0.1 to 1 µM | CC1(C)CCC(C)(C)c2cc(-c3csc(N4CCC(CCN5CCCC5)CC4)n3)ccc21 [4-(2-Pyrrolidin-1-ylethyl)-1-[4-(5,5,8,8-tetramethyl-5,6,7,8-tetrahydronaphthalen-2-yl)thiazol-2-yl]piperidine] |
| 0.1 to 1 µM | CC1(C)CCCc2cc(-c3csc(C4CCNC4)n3)ccc21 (stereo not shown) [4-(5,5-Dimethyl-5,6,7,8-tetrahydronaphthalen-2-yl)-2-pyrrolidin-3-yl-thiazole] |
| > 1 µM | CC1(C)CCC(C)(C)c2cc(-c3ncc(C4CCNCC4)o3)ccc21 [4-[2-(5,5,8,8-Tetramethyl-5,6,7,8-tetrahydronaphthalen-2-yl)oxazol-5-yl]piperidine] |
| 0.1 to 1 µM | CC1(C)CCC(C)(C)c2cc(-c3nc(C4CCNCC4)cs3)ccc21 [4-[2-(5,5,8,8-Tetramethyl-5,6,7,8-tetrahydronaphthalen-2-yl)thiazol-4-yl]piperidine] |
| 0.1 to 1 µM | CC1(C)CCCc2cc(-c3csc(C4CCN(CCCCO)C4)n3)ccc21 (stereo not shown) [4-{3-[4-(5,5-Dimethyl-5,6,7,8-tetrahydronaphthalen-2-yl)thiazol-2-yl]-pyrrolidin-1-yl}butan-1-ol] |
| > 1 µM | CC1(C)CCCc2cc(-c3csc(N4CCN(CCCCCO)CC4)n3)ccc21 [5-{4-[4-(5,5-Dimethyl-5,6,7,8-tetrahydronaphthalen-2-yl)thiazol-2-yl]-piperazin-1-yl}pentan-1-ol] |
| < 0.1 µM | CC1(C)CCC(C)(C)c2cc(-c3csc(N4CCC(NCc5c[nH]cn5)CC4)n3)ccc21 [(1H-Imidazol-4-ylmethyl)-{1-[4-(5,5,8,8-tetramethyl-5,6,7,8-tetrahydronaphthalen-2-yl)thiazol-2-yl]piperidin-4-yl}amine] |
| 0.1 to 1 µM | Cn1cncc1CNC1CCN(c2nc(-c3ccc4c(c3)C(C)(C)CCC4(C)C)cs2)CC1 [(3-Methyl-3H-imidazol-4-ylmethyl)-{1-[4-(5,5,8,8-tetramethyl-5,6,7,8-tetrahydronaphthalen-2-yl)thiazol-2-yl]piperidin-4-yl}amine] |
